What was measured:
[1] = target: T1, human sphingosine-1-phosphate receptor 1 (S1P1) (Homo sapiens, UniProt P21453); experiment: Inhibition of cAMP production (HTRF cAMP HiRange), S1P1 CHO-K1 cells; format: cell-based; conditions: inhibition of cAMP production; for Emax: CHO-K1, efficacy normalized to maximum efficacy of fingolimod, read-out: hS1P1 CAMP SPAN; for EC50: potency, read-out: hS1P1 CAMP pEC50 (converted)
In short: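 Intracellular cAMP changes read by TR-FRET (HTRF HiRange, 1 h room temperature) after 30 min compound exposure at 37 °C. Cells: overnight-plated CHO-K1 stably expressing tagged human S1P1 with EA-β-arrestin2. Responses normalized to fingolimod.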
Target sequence in this assay (P21453 whole entry): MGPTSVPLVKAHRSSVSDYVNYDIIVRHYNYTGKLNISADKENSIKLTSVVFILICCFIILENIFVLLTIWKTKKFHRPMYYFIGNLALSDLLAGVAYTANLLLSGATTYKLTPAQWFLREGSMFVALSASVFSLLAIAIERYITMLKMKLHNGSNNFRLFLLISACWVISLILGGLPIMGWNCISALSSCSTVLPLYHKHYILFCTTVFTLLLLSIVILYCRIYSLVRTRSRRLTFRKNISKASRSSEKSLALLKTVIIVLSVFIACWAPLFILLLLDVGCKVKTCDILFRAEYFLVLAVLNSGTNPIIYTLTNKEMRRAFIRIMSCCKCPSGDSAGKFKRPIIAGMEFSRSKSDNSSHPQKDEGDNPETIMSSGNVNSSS

[2] = target: T1, human sphingosine-1-phosphate receptor 1 (S1P1); experiment: β-Arrestin2 recruitment assay (PathHunter), S1P1 CHO-K1 cells; format: cell-based; conditions: for Emax: CHO-K1, β-arrestin2 recruitment, efficacy normalized to maximum efficacy of fingolimod, read-out: hS1P1 B-arrestin2 SPAN; for EC50: β-arrestin2 recruitment, potency, read-out: hS1P1 B-arrestin2 pEC50 (converted)
In short: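 Agonist-driven β-arrestin2 recruitment measured by β-galactosidase complementation after 60 min compound exposure at 37 °C and 1 h detection at room temperature. Cells: stable CHO-K1 line expressing tagged human S1P1 with EA-β-arrestin2, plated the night before. Data expressed relative to fingolimod.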
Target sequence in this assay (P21453 whole entry): as above
Target sequence in this assay (P32121 whole entry partner): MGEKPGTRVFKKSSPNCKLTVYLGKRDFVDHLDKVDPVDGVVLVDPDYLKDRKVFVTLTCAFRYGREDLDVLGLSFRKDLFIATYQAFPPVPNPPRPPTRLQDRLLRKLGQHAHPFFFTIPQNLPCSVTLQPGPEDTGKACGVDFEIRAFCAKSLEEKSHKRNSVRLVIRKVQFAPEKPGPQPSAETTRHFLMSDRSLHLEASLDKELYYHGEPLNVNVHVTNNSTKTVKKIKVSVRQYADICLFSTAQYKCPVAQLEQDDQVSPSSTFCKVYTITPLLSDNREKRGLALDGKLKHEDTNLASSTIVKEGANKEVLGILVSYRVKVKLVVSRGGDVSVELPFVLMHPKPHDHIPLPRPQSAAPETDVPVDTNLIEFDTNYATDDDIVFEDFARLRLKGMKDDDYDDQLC

Row | Compound | Emax [1] [%] | EC50 [1] [µM] | Emax [2] [%] | EC50 [2] [µM]
1 | CCC1(CC)CC(=O)c2cc(-c3nc(-c4cncc(OC)c4)no3)ccc2O1 [Compound 311, 2,2-diethyl-6-(3-(5-methoxypyridin-3-yl)-1,2,4-oxadiazol-5-yl)chroman-4-one] | > 75 | > 0.316 | > 75 | > 10
2 | COc1ccccc1-c1nnc(-c2ccc3[nH]oc(=O)c3c2)o1 [Compound 339, 5-[5-(2-methoxyphenyl)-1,3,4-oxadiazol-2-yl]-1,3-dihydro-2,1-benzoxazol-3-one] | < 75 | > 0.316 | < 75 | > 10
3 | COc1ccccc1-c1nnc(-c2ccc3c(c2)CCC(=O)N3)o1 [Compound 341, 6-[5-(2-methoxyphenyl)-1,3,4-oxadiazol-2-yl]-1,2,3,4-tetrahydro-quinolin-2-one] | < 75 | > 0.316 | < 75 | > 10
4 | Cc1nc(-c2ccccc2)oc1-c1cnc2c(c1)CC(=O)N2 [Compound 360, 5-(4-methyl-2-phenyl-1,3-oxazol-5-yl)-1H,2H,3H-pyrrolo[2,3-b]pyridin-2-one] | < 75 | > 0.316 | < 75 | > 10
5 | COc1ccc(-c2nc(-c3cccc4[nH]ccc34)ns2)cc1 [Compound 361, 4-[5-(4-methoxyphenyl)-1,2,4-thiadiazol-3-yl]-1H-indole] | < 75 | > 0.316 | < 75 | > 10
6 | COc1ccc(-c2nsc(-c3ccc4[nH]ccc4c3)n2)cc1 [Compound 363, 5-[3-(4-methoxyphenyl)-1,2,4-thiadiazol-5-yl]-1H-indole] | < 75 | > 0.316 | < 75 | > 10
7 | COc1cccc(-c2nc(-c3ccc4[nH]ccc4c3)ns2)c1 [Compound 364, 5-[5-(3-methoxyphenyl)-1,2,4-thiadiazol-3-yl]-1H-indole] | > 75 | > 0.316 | < 75 | > 10
8 | Cc1ccccc1-c1noc(-c2ccc3c(c2)CCC(=O)N3)n1 [Compound 365, 6-[3-(2-methylphenyl)-1,2,4-oxadiazol-5-yl]-1,2,3,4-tetrahydroquinolin-2-one] | > 75 | > 0.316 | < 75 | < 10

Further lines, results first:

Row | Emax [1] [%] | EC50 [1] [µM] | Emax [2] [%] | EC50 [2] [µM] | Compound
9 | > 75 | < 0.316 | < 75 | < 10 | Cc1ccccc1-c1noc(-c2ccc3c(c2)nnn3C2CCC2)n1 [Compound 306, 1-cyclobutyl-5-[3-(2-methylphenyl)-1,2,4-oxadiazol-5-yl]-1H-1,2,3-benzotriazole]
10 | < 75 | > 0.316 | > 75 | < 10 | CC(C)n1ccc2cc(-c3nc(-c4cccc5c4OCCC5)no3)ccc21 [Compound 327, 3-chroman-8-yl-5-(1-isopropylindol-5-yl)-1,2,4-oxadiazole]
11 | > 75 | > 0.316 | > 75 | < 10 | COc1cccc(F)c1-c1noc(-c2ccc3c(ccn3C(C)C)c2)n1 [Compound 328, 3-(2-fluoro-6-methoxy-phenyl)-5-(1-isopropyl-indol-5-yl)-1,2,4-oxadiazole]
12 | < 75 | > 0.316 | < 75 | > 10 | COc1ccccc1-c1nnc(-c2ccc3c(c2)c(=O)on3C)o1 [Compound 340, 5-[5-(2-methoxyphenyl)-1,3,4-oxadiazol-2-yl]-1-methyl-1,3-dihydro-2,1-benzoxazol-3-one]
13 | < 75 | > 0.316 | < 75 | > 10 | Cc1ccccc1-c1noc(-c2ccc3scnc3c2)n1 [Compound 362, 5-[3-(2-methylphenyl)-1,2,4-oxadiazol-5-yl]-1,3-benzothiazole]
14 | < 75 | > 0.316 | < 75 | > 10 | COc1cccc(-c2nc(-c3ccc4c(ccn4C(C)C)c3)ns2)c1 [Compound 366, 5-[5-(3-methoxyphenyl)-1,2,4-thiadiazol-3-yl]-1-(propan-2-yl)-1H-indole]

From patent US20230114241A1, “METHODS OF TREATING EPILEPSY USING THE SAME” (Trevena, Inc., priority 2019, published 2023)
